Patent publication US4935418A, “Medical compositions of 1-aryloxy-2,3,4,5-tetrahydro-3-benzazepines and use thereof” (Hoechst-Roussel Pharmaceuticals Inc., priority 1988, dated 1990)
Structures can show the parent of a compound that is named as a salt.

Legend:
Assay type in all cases: in vivo
[1] = tested on: spontaneous hypertensive rat; test: antihypertensive activity in the spontaneous hypertensive rat, indirect tail cuff method; settings: 50 mg/kg of body weight, oral, three days, measured on third day
Procedure: In this procedure a group of five animals are treated orally for three days with the test compound in relation to the control group of the same number. The drop in blood pressure is measured on the third day following administration.

[2] = tested on: 2-phenyl-1,4-benzoquinone-induced writhing in mice; test: 2-phenyl-1,4-benzoquinone-induced writhing test in mice; settings: Mus musculus, sc
Description: The compounds of the invention are also useful as analgesic agents due to their ability to alleviate pain in mammals. […] Exptl. Biol. Med., 95, 729 (1957)].

[3] = tested on: 5-hydroxytryptophan induced seizures in rats; test: potentiation of 5-hydroxytryptophan induced seizures in rats; settings: Rattus norvegicus, ip, intraperitoneal, read-out: ED50 (potentiation of 5-hydroxytryptophan induced seizures in 50% of the animals)
Description: The antidepressant activities of some of the compounds of the invention expressed in terms of a potentiation of 5-hydroxytryptophan induced seizures in 50% of the animals is given in Table II.

[4] = tested on: tetrabenazine induced ptosis in mice; test: inhibition of tetrabenazine induced ptosis in mice; settings: Mus musculus, oral, read-out: ED50 (50% inhibition of tetrabenazine-induced ptosis)
Description: The antidepressant activities of some of the compounds of the invention expressed in terms of a 50% inhibition of ptosis of tetrabenazine-induced ptosis in mice is given in Table I.

SMILES | Decrease in Blood Pressure (mean arterial) [1] | ED50 [3] | also measured
CC(CN)N1CCc2ccccc2C(Oc2ccc(C(F)(F)F)cc2)C1 (centres unmarked) [3-(2-Amino-1-methyl)ethyl-2,3,4,5-tetrahydro-1-(p-trifluoromethylphenoxy)-3-benzazepine dioxalate] | 51 mm HG | – | –
COc1cc2c(cc1OC)C(Oc1ccc(C(F)(F)F)cc1)CN(C)CC2.Cl (centres unmarked) [7,8-Dimethoxy-3-methyl-2,3,4,5-tetrahydro-1-(p-trifluoromethylphenoxy)-3-benzazepine hydrochloride] | 43 mm HG | – | inhibition in vivo at 5.7 mg/kg ([2]; subcutaneous, 5.7 mg/kg, mice): 50%
COc1cc2c(cc1OC)C(Oc1ccc(C(F)(F)F)cc1)CNCC2 (centres unmarked) [7,8-Dimethoxy-2,3,4,5-tetrahydro-1-(p-trifluoromethylphenoxy)-3-benzazepineoxalate] | 49 mm HG | – | –
COc1cc2c(cc1OC)C(Oc1ccccc1)CNCC2.O=C(O)C(=O)O (centres unmarked) [7,8-Dimethoxy-1-phenoxy-2,3,4,5-tetrahydro-3-benzazepine oxalate] | – | 0.85 mg/kg | ED50 [4]: 3.7 mg/kg
CCC(=O)O[C@](Cc1ccccc1)(c1ccccc1)[C@H](C)CN(C)C [propoxyphene, reference compound] | – | – | inhibition in vivo at 3.9 mg/kg ([2]; read-out: Inhibition of Writhing): 50%
CNCCN1CCc2ccccc2C(Oc2ccc(C(F)(F)F)cc2)C1.O=C(O)C(=O)O.O=C(O)C(=O)O (centres unmarked) [3-(2-Methylaminoethyl)-2,3,4,5-tetrahydro-1-(p-trifluoromethylphenoxy)-3-benzazepine dioxalate] | 33 mm HG | – | –
Clc1cccc(OC2CN(CC3CC3)CCc3ccccc32)c1 (centres unmarked) [1-(m-Chlorophenoxy)-3-cyclopropylmethyl-2,3,4,5-tetrahydro-3-benzazepine oxalate] | – | – | inhibition in vivo at 25 mg/kg ([2]; subcutaneous, mice): 66%
NCCCN1CCc2ccccc2C(Oc2ccc(C(F)(F)F)cc2)C1 (centres unmarked) [3-(3-Aminopropyl)-2,3,4,5-tetrahydro-1-(p-trifluoromethylphenoxy)-3-benzazepine dimaleate] | – | – | inhibition in vivo at 8.2 mg/kg ([2]; subcutaneous, 8.2 mg/kg, mice): 50%
COc1cc2c(cc1OC)C(Oc1ccc(C)cc1)CN(C)CC2 (centres unmarked) [7,8-Dimethoxy-3-methyl-1-(4-methylphenoxy)-2,3,4,5-tetrahydro-3-benzazepinemaleate] | – | 0.9 mg/kg | –
COc1cc2c(cc1OC)C(Oc1cccc(Cl)c1)CNCC2.O=C(O)C(=O)O (centres unmarked) [1-(m-Chlorophenoxy)-7,8-dimethoxy-2,3,4,5-tetrahydro-3-benzazepine oxalate] | – | 1.1 mg/kg | ED50 [4]: 4.2 mg/kg
COc1ccc(OC2CNCCc3cc(OC)c(OC)cc32)cc1.O=C(O)/C=C\C(=O)O (centres unmarked) [7,8-Dimethoxy-1-(4-methoxyphenoxy)-2,3,4,5-tetrahydro-3-benzazepine maleate] | – | 0.9 mg/kg | –
NCCN1CCc2ccccc2C(Oc2ccc(C(F)(F)F)cc2)C1.O=C(O)C(=O)O.O=C(O)C(=O)O (centres unmarked) [3-(2-Aminoethyl)-2,3,4,5-tetrahydro-1-(p-trifluoromethylphenoxy)-3-benzazepine dioxalate] | 61 mm HG | – | –
Br.Cc1ccc(OC2CN(C)CCc3ccccc32)cc1 (centres unmarked) [3-Methyl-1-(p-methylphenoxy)-2,3,4,5-tetrahydro-3-benzazepine Hydrobromide] | 35 mm HG | – | –
N=C(N)NCCN1CCCCCCC1 [guanethidine, reference compound] | 20 mm HG | – | –
CCCN1CCc2cc(OC)c(OC)cc2C(Oc2ccccc2)C1.O=C(O)C(=O)O (centres unmarked) [7,8-Dimethoxy-1-phenoxy-3-(n-propyl)-2,3,4,5-tetrahydro-3-benzazepine oxalate] | – | 0.7 mg/kg | –
CNCCCN1c2ccccc2CCc2ccccc21 [desipramine, reference compound] | – | – | ED50 [4]: 2.3 mg/kg
Clc1cccc(OC2CN(CCc3ccccc3)CCc3ccccc32)c1 (centres unmarked) [1-(m-Chlorophenoxy)-3-(2-phenylethyl)-2,3,4,5-tetrahydro-3-benzazepine oxalate] | – | – | inhibition in vivo at 25 mg/kg ([2]; subcutaneous, mice): 42%
FC(F)(F)c1ccc(OC2CNCCc3ccccc32)cc1.O=C(O)C(=O)O (centres unmarked) [1-(p-Trifluoromethylphenoxy)-2,3,4,5-tetrahydro-3-benzazepine oxalate] | – | 2.9 mg/kg | –
Br.COc1ccc(OC2CN(C)CCc3ccccc32)cc1 (centres unmarked) [1-(p-Methoxyphenoxy)-3-methyl-2,3,4,5-tetrhydro-3-benzazepine hydrobromide] | 48 mm HG | – | inhibition in vivo at 20 mg/kg ([2]; subcutaneous, mice): 46%
COc1cc2c(cc1OC)C(Oc1ccccc1)CN(C)CC2.O=C(O)C(=O)O (centres unmarked) [7,8-Dimethoxy-3-methyl-1-phenoxy-2,3,4,5-tetrahydro-3-benzazepine oxalate] | – | 7.5 mg/kg | ED50 [4]: 3.8 mg/kg; inhibition in vivo at 20 mg/kg ([2]; subcutaneous, mice): 58%
COc1ccc(OC2CN(C)CCc3cc(OC)c(OC)cc32)cc1 (centres unmarked) [7,8-Dimethoxy-1-(4-methoxyphenoxy)-3-methyl-2,3,4,5-tetrahydro-3-benzazepine hydrochloride] | – | – | inhibition in vivo at 7.6 mg/kg ([2]; subcutaneous, 7.6 mg/kg, mice): 50%
NCCN1CCc2ccccc2C(Oc2cccc(Cl)c2)C1.O=C(O)C(=O)O.O=C(O)C(=O)O (centres unmarked) [3-(2-Aminoethyl)-1-(m-chlorophenoxy)-2,3,4,5-tetrahydro-3-benzazepine dioxalate] | – | – | ED50 [4]: 7.5 mg/kg
COc1cc2c(cc1OC)C(Oc1ccc(F)cc1)CNCC2.O=C(O)/C=C\C(=O)O (centres unmarked) [7,8-Dimethoxy-1-(4-fluorophenoxy)-2,3,4,5-tetrahydro-3-benzazepine maleate] | – | 2.9 mg/kg | –
